Assays:
HFD-fed MUP-uPA mice = assay: Casp2 inhibitor treatment of HFD-fed MUP-uPA mice (NASH model); type: in vivo, mouse; settings: for circulating TG / circulating cholesterol: serum
Protocol: FIGS. 6A-6G are pictorial and graphical diagrams showing that Casp2 inhibition ameliorates NASH. […] After 6 weeks of HFD feeding, MUP-uPA mice were treated with Ac-VDVAD (10 μg/g) for 6 weeks while kept on HFD. […] FFPE sections from livers of inhibitor or vehicle treated mice were evaluated for macrovesicular fat, ballooning hepatocytes, MDB and p62 aggregates, macrophages, collagen fibers and lipid droplets. Magnification bars: 100 μm. Images were quantitated as above and results are shown on the right as averages±SEM (Vehicle: n=6; Ac-VDVAD: n=5). […] Mean±SEM. […] Adipocyte size and density were determined as above. ATM (adipose tissue macrophages) were visualized by F4/80 staining and quantified as above.
Casp2^−/− mice were purchased from The Jackson Laboratories and crossed with either C57BL/6 or MUP-uPA mice (Sandgren et al., 1991; Weglarz et al., 2000) to generate Casp2^−/−/WT or Casp2^−/−/MUP-uPA mice, respectively. All mouse lines were either on a pure C57BL/6 genetic background or crossed into it for at least nine generations. Mice were fed with HFD (#S3282, Bio-serv) for a total of 12 weeks, starting at 8 weeks of age. Body weight increase and food consumption were monitored bi-weekly throughout the entire feeding period. Mice were starved for 3 hr before sacrifice and liver and adipose tissue were excised and weighed.
(§1) RNAs were extracted from liver or fat tissue of indicated mice or human biopsies using TRIZOL reagent according to manufacturer's instruction. cDNAs were synthesized from total RNAs using Super Script VILO cDNA Synthesis Kit (Thermo Fisher Scientific, MA) according to the supplier's instructions. The cDNAs were quantified by real-time PCR analysis using SYBR Green Master Mix (Bio-Rad, CA). Primer sequences that were used for human biopsies are as follows:
Liver and epidydimal fat were fixed in 4% paraformaldehyde for 48 hr and embedded in paraffin, sectioned, stained with hematoxylin and eosin (H&E) to evaluate gross morphology and ballooning degeneration and with Sirius Red to determine fibrosis. Prepared FFPE sections were subjected to incubation with antibodies specific to p62 and F4/80 to visualize formation of Mallory-Denk Bodies (MDB) and macrophage infiltration, respectively. For frozen-block preparation, liver tissue was embedded in Tissue-Tek OCT compound (Sakura Finetek), sectioned, and stained with Oil Red O to visualize TG accumulation. Stained areas were quantified using ImageJ software.
Liver lipids were extracted using chloroform/methanol (2:1 v/v) and plasma and liver TG and cholesterol were determined using Triglyceride Colorimetric Assay Kit (Cayman Chemical Company, MI) and Cholesterol Quantification Kit (Sigma-Aldrich, MO) according to manufacturer's instructions.
Morphological analysis of adipocytes was performed by using MRI adipocyte tools (Osman et al., 2013). Images were taken from FFPE epidydimal fat section by AXIO Imager A2 (Carl Zeiss, Germany) and subjected to MRI adipocyte software to obtain area of individual fat cell and number of adipocytes per HMF. Quantification and statistical significance were analyzed by Prism 7 software (GraphPad Prism, CA).
To examine whether Casp2 inhibition is of therapeutic value, Ac-VDVAD-CHO (C23H37N5O10), a cell permeable, Casp2 inhibitor (Talanian et al., 1997) was administrated to HFD-fed MUP-uPA mice. HFD feeding was initiated at eight weeks of age, and six weeks later the mice were given the Casp2 inhibitor on alternate days by intraperitoneal (i.p.) injection (FIG. 6A). After a 6-week treatment regimen, the mice were sacrificed and their liver and adipose tissue were examined. […] Fibrosis was also attenuated. qRT-PCR analysis confirmed that expression of inflammatory cytokines and markers as well as fibrosis-related genes was reduced in response to Casp2 inhibition (FIG. 6C). […]

Casp2 = assay: Tunicamycin (ER stress inducer) administration to NC-fed BL6 mice, liver Casp2 expression; type: in vivo, mouse; settings: non-transgenic 3-month-old NC-fed BL6 mice; tunicamycin 1.25 mg/kg i.p.
Protocol: FIGS. 12A-12I are pictorial and graphical diagrams showing elevated Casp2 expression in ER-stressed mice and human NASH. FIG. 12A the results from immunoblot (IB) analysis of whole cell lysates (WCL) from 5-week-old WT and MUP-uPA livers (left) and WCL of livers from 3-month-old WT mice that were i.p. injected with dextrose or tunicamycin (1.25 mg/kg). Results are mean±SEM (dextrose: n=4; tunicamycin: n=5). P: precursor, C: cleaved. […] Results are mean±SEM (WT: n=5; MUP: n=9). […] Casp4 and Casp12 were examined in liver lysates of 5-week-old mice. […] Staining intensity was quantitated using ImageJ as described in FIG. 1.
as §1
ER stress in MUP-uPA liver peaks in 5- to 6-week-old mice and then declines due to reduced uPA expression in newly regenerated hepatocytes (Nakagawa et al., 2014; Sandgren et al., 1991). […]

MUP-uPA mice = settings: HFD-fed MUP-uPA mice; cited from earlier work
[1] = test system: human caspases (including caspase-2); settings: cited from earlier work
[2] = target: T1, Flag-tagged SREBP2, Q12772
T1 chain: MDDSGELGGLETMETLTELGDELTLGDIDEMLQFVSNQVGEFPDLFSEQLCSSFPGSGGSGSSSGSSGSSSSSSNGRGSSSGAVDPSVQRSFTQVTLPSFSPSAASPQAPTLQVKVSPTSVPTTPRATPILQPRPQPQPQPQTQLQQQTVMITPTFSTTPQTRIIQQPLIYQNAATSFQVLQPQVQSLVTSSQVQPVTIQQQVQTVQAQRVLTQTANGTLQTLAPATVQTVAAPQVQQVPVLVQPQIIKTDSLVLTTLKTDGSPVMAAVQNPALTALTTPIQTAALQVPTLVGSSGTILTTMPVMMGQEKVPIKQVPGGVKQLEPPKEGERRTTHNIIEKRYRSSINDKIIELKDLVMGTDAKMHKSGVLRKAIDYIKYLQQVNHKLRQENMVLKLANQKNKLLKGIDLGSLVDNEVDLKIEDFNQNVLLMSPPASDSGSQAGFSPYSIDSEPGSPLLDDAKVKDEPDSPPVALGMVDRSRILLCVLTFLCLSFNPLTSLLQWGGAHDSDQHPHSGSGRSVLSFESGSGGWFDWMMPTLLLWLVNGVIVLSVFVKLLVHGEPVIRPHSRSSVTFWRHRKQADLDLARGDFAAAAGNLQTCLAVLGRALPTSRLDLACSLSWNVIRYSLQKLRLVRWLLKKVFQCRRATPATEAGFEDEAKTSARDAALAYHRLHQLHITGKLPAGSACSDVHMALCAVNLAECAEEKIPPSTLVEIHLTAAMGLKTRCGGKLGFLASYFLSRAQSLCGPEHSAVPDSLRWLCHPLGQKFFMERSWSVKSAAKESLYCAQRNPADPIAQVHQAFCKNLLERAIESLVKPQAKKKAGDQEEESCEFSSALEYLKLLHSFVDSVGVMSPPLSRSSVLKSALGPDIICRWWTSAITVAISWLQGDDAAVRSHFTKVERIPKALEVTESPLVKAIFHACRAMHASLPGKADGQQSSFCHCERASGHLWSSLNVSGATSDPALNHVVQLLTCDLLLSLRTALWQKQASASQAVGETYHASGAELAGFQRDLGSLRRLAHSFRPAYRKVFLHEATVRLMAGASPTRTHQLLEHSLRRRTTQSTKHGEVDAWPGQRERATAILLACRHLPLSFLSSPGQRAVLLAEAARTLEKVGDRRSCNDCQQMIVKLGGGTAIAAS

[3] = HFD-fed MUP-uPA mice, 10 μg/g i.p. every other day for 6 weeks
[4] = HFD-fed MUP-uPA mice, 10 μg/g i.p. every other day for 6 weeks, liver
[5] = HFD-fed MUP-uPA mice, 10 μg/g i.p. on alternate days for 6 weeks
[6] = HFD-fed MUP-uPA mice, 10 μg/g i.p. on alternate days for 6 weeks, liver sections
[7] = liver WCL, IB, HFD-fed MUP-uPA mice, 10 μg/g i.p. on alternate days for 6 weeks

Molecule: Ac-VDVAD-aldehyde
- ATM (adipose tissue macrophage) accumulation / infiltration into epidydimal fat (HFD-fed MUP-uPA mice; [3]): blocked
- UCP1 expression in BAT (HFD-fed MUP-uPA mice; [3]): enhanced
- liver TG (HFD-fed MUP-uPA mice; [3]): decreased
- liver fibrosis (HFD-fed MUP-uPA mice; [3]): attenuated
- MDB (Mallory-Denk body) formation (HFD-fed MUP-uPA mice; [4]): prevented
- circulating TG (HFD-fed MUP-uPA mice; [3]): decreased
- circulating cholesterol (HFD-fed MUP-uPA mice; [3]): decreased
- blood insulin (HFD-fed MUP-uPA mice; [5]): had no effect
- body weight (HFD-fed MUP-uPA mice; [5]): had no effect
- hepatic steatosis (HFD-fed MUP-uPA mice; HFD-fed MUP-uPA mice, 10 μg/g i.p. on alternate days for 6 weeks after 6 weeks of HFD, liver sections): prevented
- macrophage recruitment (HFD-fed MUP-uPA mice; HFD-fed MUP-uPA mice, 10 μg/g i.p. on alternate days for 6 weeks, liver): decreasing
- ballooning degeneration (HFD-fed MUP-uPA mice; [6]): prevented
- p62 accumulation (HFD-fed MUP-uPA mice; [6]): prevented
- SREBP1/2 activation in liver (HFD-fed MUP-uPA mice; IB of liver WCL and NE, HFD-fed MUP-uPA mice, 10 μg/g i.p. on alternate days for 6 weeks): attenuated
- energy expenditure, as suggested by AMPK activation in peripheral tissues, including liver and skeletal muscle (HFD-fed MUP-uPA mice; IB of liver and muscle extracts, HFD-fed MUP-uPA mice, 10 μg/g i.p. on alternate days for 6 weeks): increased
- established NASH (HFD-fed MUP-uPA mice; MUP-uPA mice, 10 μg/g for 6 weeks after 6 weeks of HFD feeding, kept on HFD): ameliorates
- adipocyte enlargement (HFD-fed MUP-uPA mice; epidydimal fat, HFD-fed MUP-uPA mice, 10 μg/g i.p. on alternate days for 6 weeks): blocked
- INSIG1 or 2 expression (HFD-fed MUP-uPA mice; [7]): had no effect
- IRS2 expression (HFD-fed MUP-uPA mice; [7]): had no effect
- StARD4 expression (HFD-fed MUP-uPA mice; [7]): reduced
- mTORC1/p70S6K activation (HFD-fed MUP-uPA mice; [7]): had no effect
- expression of inflammatory cytokines and markers as well as fibrosis-related genes (HFD-fed MUP-uPA mice; qRT-PCR, HFD-fed MUP-uPA mice, 10 μg/g i.p. on alternate days for 6 weeks): reduced

Molecule: z-VDVAD-fmk
- ATM (adipose tissue macrophage) accumulation / infiltration into epidydimal fat (HFD-fed MUP-uPA mice; [3]): reduced
- UCP1 expression in BAT (HFD-fed MUP-uPA mice; [3]): elevating
- inflammatory infiltration in livers (HFD-fed MUP-uPA mice; [3]): decreased
- liver TG (HFD-fed MUP-uPA mice; [3]): significantly prevented
- liver fibrosis (HFD-fed MUP-uPA mice; [3]): dramatically reduced
- MDB (Mallory-Denk body) formation (HFD-fed MUP-uPA mice; [4]): decreased
- circulating TG (HFD-fed MUP-uPA mice; [3]): decreased
- circulating cholesterol (HFD-fed MUP-uPA mice; [3]): decreased

Molecule: tunicamycin
- Casp2 protein and RNA in liver (Casp2): induced

Molecule: O=C(O)CCCc1ccccc1 [PBA, phenyl butyric acid]
- NASH development (MUP-uPA mice): effectively inhibited
- activation of sterol response element binding proteins (SREBP) (MUP-uPA mice): attenuate
- lipid accumulation (MUP-uPA mice): inhibit

Molecule: C[C@H](NC(=O)C(=O)Nc1ccccc1C(C)(C)C)C(=O)N[C@@H](CC(=O)O)C(=O)COc1c(F)c(F)cc(F)c1F [IDN-6556]
- activity against human caspases ([1]; broad-spectrum (pan-caspase) inhibitor): activity against all tested human caspases
- inhibition of other classes of proteases or other enzymes or receptors other than caspases ([1]; selectivity): no inhibition

Molecule: C[C@H](CCC(=O)NCCS(=O)(=O)O)[C@H]1CC[C@H]2[C@@H]3[C@@H](O)C[C@@H]4C[C@H](O)CC[C@]4(C)[C@H]3CC[C@]12C [TUDCA, tauroursodeoxycholic acid]
- NASH development (MUP-uPA mice): effectively inhibited
- activation of sterol response element binding proteins (SREBP) (MUP-uPA mice): attenuate
- lipid accumulation (MUP-uPA mice): inhibit

B1: Casp2-HA (mouse Casp2 with a C terminal HA epitope) (protein)
chain: MAAPSGRSQSSLHRKGLMAADRRSRILAVCGMHPDHQETLKKNRVVLAKQLLLSELLEHLLEKDIITLEMRELIQAKGGSFSQNVELLNLLPKRGPQAFDAFCEALRETRQGHLEDLLLTTLSDIQHVLPPLSCDYDTSLPFSVCESCPPHKQLRLSTDATEHSLDNGDGPPCLLVKPCTPEFYQAHYQLAYRLQSQPRGLALVLSNVHFTGEKDLEFRSGGDVDHTTLVTLFKLLGYNVHVLHDQTAQEMQEKLQNFAQLPAHRVTDSCVVALLSHGVEGGIYGVDGKLLQLQEVFRLFDNANCPSLQNKPKMFFIQACRGDETDRGVDQQDGKNHTQSPGCEESDAGKEELMKMRLPTRSDMICGYACLKGNAAMRNTKRGSWYIEALTQVFSERACDMHVADMLVKVNALIKEREGYAPGTEFHRCKEMSEYCSTLCQQLYLFPGYPPT
- SREBP activation/cleavage (immunoblot) [2]: co-transfection of Casp2 with SREBP2 into either SCAP-deficient (293^ΔSCAP) or WT HEK293 cells did not result in SREBP1/2 activation/cleavage, unless an SP expression vector was also included

Reference: patent US20190351003A1, “METHODS FOR INHIBITING NONALCOHOLIC STEATOHEPATITIS, NONALCOHOLIC FATTY LIVER DISEASE, AND/OR DE NOVO LIPOGENESIS” (The Regents of the University of California, priority 2017, published 2019)
